For orientation: solubility means the dissolved amount per volume that the medium holds. High values mean much dissolved substance, low ones little dissolved substance.

In data set [1] the test system is human colon cancer cell line HCT116 cells. As to the kind of experiment: Cell proliferation inhibitory activity, HCT116. The format is cell-based. To be noted: Homo sapiens, HCT-116, read-out: 50% proliferation inhibitory concentration (IC50 value) HCT116; HCT116, 72 hours, WST-8. As for the experimental part:
(§1) The compounds according to the present invention were measured for cancer cell proliferation inhibitory activity and human umbilical vein endothelial cell (HUVEC) proliferation inhibitory activity.
(§2) Test compounds were serially diluted with dimethyl sulfoxide and then diluted 50 times with Ca^2+- and Mg^2+-free phosphate-buffered saline, and 20 μL of each of the resulting solution was dispensed into a 96-well plate. […] Each cell suspension contains approximately 3000 cells/180 μL. These cell suspensions were dispensed to the plate containing the test compounds at 180 μL/well and incubated in a 5% carbon dioxide gas incubator at 37° C. for 72 hours. 20 μL of WST-8 (HCT116, Dojin) or WST-1 (HUVEC, Roche Diagnostics) was added to each well, and absorbance at 450 nm (reference wavelength: 650 nm) was measured.
For orientation: Tetrazolium assays rely on reduction of a dye to a coloured formazan, in cell work by metabolically active cells.

Data set [2] has as its system human umbilical vein endothelial cells (HUVEC), VEGF-dependent proliferation. The experiment in a line: VEGF-dependent HUVEC proliferation inhibition assay. The format is cell-based. The settings on record: read-out: 50% proliferation inhibitory concentration (IC50 value) HUVEC (VEGF-dependent), 20 ng/mL of VEGF, 72 hours, WST-1. As for the experimental part: as §1, §2

In data set [3] the test system is human umbilical vein endothelial cells (HUVEC), VEGF-independent proliferation. The experiment in a line: VEGF-independent HUVEC proliferation inhibition assay. The format is cell-based. To be noted: read-out: 50% proliferation inhibitory concentration (IC50 value) HUVEC (VEGF-independent), vascular endothelial cell growth-promoting agent and heparin, 72 hours, WST-1. As for the experimental part: as §1, §2

Data set [4] has as its system tube formation of human-derived vascular endothelial cells (HUVEC). The experiment in a line: Tube formation inhibition test (angiogenesis assay kit, KURABO). The format is cell-based. To be noted: 264 h, final concentration 6.4 nM, 11 days, read-out: Tube formation inhibition ratio (%). As for the experimental part:
The formed tubes were stained with a tube staining kit CD31 (KURABO). The stain image of each well was taken under a microscope, stored in an image file, and measured for the tube formation area using angiogenesis quantitative analysis software of KURABO. The inhibition ratio % of each test compound added to the well was calculated, provided that the ratio of the reference was 100%.

Data set [5] deals with T1, FLT3 intracellular domain protein (Homo sapiens, UniProt P36888).
T1 sequence (P36888 564-993 limits assumed): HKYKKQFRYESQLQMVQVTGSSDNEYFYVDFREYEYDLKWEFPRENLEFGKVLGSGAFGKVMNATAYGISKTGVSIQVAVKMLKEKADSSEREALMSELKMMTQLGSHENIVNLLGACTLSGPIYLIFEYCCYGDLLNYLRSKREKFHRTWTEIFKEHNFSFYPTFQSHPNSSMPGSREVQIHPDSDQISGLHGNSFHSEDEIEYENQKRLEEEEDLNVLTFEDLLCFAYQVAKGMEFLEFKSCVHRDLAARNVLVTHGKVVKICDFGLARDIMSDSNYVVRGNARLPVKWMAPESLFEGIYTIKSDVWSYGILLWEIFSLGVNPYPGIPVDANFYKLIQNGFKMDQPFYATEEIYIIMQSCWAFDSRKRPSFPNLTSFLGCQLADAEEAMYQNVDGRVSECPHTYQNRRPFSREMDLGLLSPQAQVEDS
As to the kind of experiment: Flt3 enzyme inhibition test (HTRF). In kind it is biochemical. To be noted: phosphorylation of biotinylated peptide. As to the method: The FLT3 inhibitory activity was measured by the activity of FLT3 intracellular domain protein inhibiting for phosphorylation of a biotinylated peptide ([…]).

Data set [6] deals with human colon cancer cell line HCT116 cells. As to the kind of experiment: Antitumor test, HCT116 transplanted subcutaneously in nude mice. The format is in vivo, female Balb/c nude mouse. To be noted: once a day for 12 days; for Tumor growth inhibition ratio (%): last administration day; for Decrease ratio in body weight (%): maximum decrease. As to the method: A cell suspension of human colon cancer cell line HCT116 cells was prepared using Hanks's solution, and 5.0×10^6 cells thereof were transplanted subcutaneously into the flank of each female Balb/c nude mouse. Oral administration of the test compound (once a day for 12 days) was started when the transplanted tumor volume reached 200 to 250 mm^3. The tumor volume was calculated by the expression: 0.5×(minor axis)^2×(major axis). The tumor growth inhibition ratio of tumor growth of the test compound to tumor growth of the reference group was determined.

The nature of data set [7]: Solubility in fasted state simulated intestinal fluid. In kind it is physicochemical. To be noted: pH 6.5, fassif, kinetic from dmso stock, fasted state simulated intestinal fluid (pH6.5), 37° C. As for the experimental part: 2 μL of each dimethyl sulfoxide solutions containing test compounds were dispensed into wells of a 96-well plate, and 200 μL of fasted state simulated intestinal fluid (pH6.5) was added to each well. The plate was shaken at 37° C. for 20 hours. The solution was filtered through a membrane filter, and 101 μL of the filtrate was transferred to a UV plate, followed by addition of 100 μL of a solution mixture of ethanol:water=2:1 thereto. Separately, as a standard, 101 μL of a solution prepared by 2 μL of a dimethyl sulfoxide solution, 4 μL of dimethyl sulfoxide, 400 μL of ethanol, and 200 μL of water was transferred to a UV plate, and 100 μL of fasted state simulated intestinal fluid (pH6.5) was added thereto. The solubility was calculated by the following expression: Solubility=[(absorbance of test solution)−blank]/[(absorbance of standard solution)−blank]×165 μM (165 μM is the concentration of the standard solution) Composition of the fasted state simulated intestinal fluid (pH6.5)
The composition was prepared in compliance with the description in E. Galia, et al., Pharm. Res. 1998, 698.
Taurocholic acid (161 mg), L-α-phosphatidylcholine (59 mg), potassium dihydrogen phosphate (0.39 g), and potassium chloride (0.77 g) were added to about 90 mL of water. The resulting solution was adjusted to a pH of 6.5 with a sodium hydroxide aqueous solution and then diluted to a volume of 100 mL with water. The solution was filtered through a membrane filter.

The target in a further data set is Raf-1 (Homo sapiens, UniProt P04049). The experiment in a line: Raf-1 enzyme inhibition assay (MEK-1 phosphorylation, HTRF). In kind it is biochemical. To be noted: phosphorylation of His6-MEK-1. As to the method: (§3) The compounds according to the present invention were measured for Raf-1 and KDR enzyme inhibitory activities.
Raf-1, sequence (P04049 whole entry, the tested form may be a part): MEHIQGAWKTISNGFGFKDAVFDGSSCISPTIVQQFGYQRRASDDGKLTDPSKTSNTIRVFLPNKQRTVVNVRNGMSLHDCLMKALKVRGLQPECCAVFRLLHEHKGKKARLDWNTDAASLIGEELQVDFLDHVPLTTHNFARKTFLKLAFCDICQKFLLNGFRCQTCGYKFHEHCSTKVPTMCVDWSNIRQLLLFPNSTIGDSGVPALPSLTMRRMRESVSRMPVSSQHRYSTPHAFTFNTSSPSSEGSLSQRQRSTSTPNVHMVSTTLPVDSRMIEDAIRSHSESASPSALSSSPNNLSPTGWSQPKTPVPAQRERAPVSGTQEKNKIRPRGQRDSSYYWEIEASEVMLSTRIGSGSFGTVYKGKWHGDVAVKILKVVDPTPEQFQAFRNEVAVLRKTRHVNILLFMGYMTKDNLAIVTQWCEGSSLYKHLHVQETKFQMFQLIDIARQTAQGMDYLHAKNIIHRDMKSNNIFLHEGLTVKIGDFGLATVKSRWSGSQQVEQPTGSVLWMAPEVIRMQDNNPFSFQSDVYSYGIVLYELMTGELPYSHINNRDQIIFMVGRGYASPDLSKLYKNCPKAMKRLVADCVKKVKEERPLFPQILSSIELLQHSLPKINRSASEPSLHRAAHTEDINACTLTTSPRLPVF
(§4) The Raf-1 inhibitory activity was measured by the activity of Raf-1 protein for inhibiting phosphorylation of MEK-1 protein having six histidine residues (His6) fused to the N-terminus thereof. […] The KDR inhibitory activity was measured by the activity of KDR intracellular domain protein for inhibiting phosphorylation of a biotinylated peptide ([…]).

Data set [8] deals with KDR intracellular domain protein (Homo sapiens, UniProt P35968). As to the kind of experiment: KDR enzyme inhibition assay (biotinylated peptide phosphorylation, HTRF). The format is biochemical. To be noted: phosphorylation of biotinylated peptide. As for the experimental part: as §3, §4
KDR intracellular domain protein, sequence (P35968 786-1356 limits assumed): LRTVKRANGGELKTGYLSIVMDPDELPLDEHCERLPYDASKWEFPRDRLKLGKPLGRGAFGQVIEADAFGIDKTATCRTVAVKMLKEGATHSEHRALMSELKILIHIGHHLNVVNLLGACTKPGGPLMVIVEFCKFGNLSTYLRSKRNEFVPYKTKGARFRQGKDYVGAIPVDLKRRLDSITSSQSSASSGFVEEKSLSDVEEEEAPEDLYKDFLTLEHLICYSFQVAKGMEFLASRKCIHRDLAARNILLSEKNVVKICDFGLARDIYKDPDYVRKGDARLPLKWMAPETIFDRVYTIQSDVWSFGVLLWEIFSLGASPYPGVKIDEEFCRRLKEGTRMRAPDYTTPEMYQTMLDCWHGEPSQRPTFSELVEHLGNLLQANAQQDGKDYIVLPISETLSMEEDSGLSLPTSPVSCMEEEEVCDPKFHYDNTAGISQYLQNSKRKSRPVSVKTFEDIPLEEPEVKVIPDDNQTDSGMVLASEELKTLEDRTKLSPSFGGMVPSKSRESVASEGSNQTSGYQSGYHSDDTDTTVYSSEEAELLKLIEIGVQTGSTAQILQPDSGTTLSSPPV
For data set [9], the system named is choroidal neovascularization. The experiment in a line: Laser coagulation-induced murine choroidal neovascularization model. The format is in vivo, C57BL6J mice. To be noted: for Average FA score: once a day for three days. As to the method:
Laser coagulation was performed on two- to three-month-old C57BL6J mice (ten mice per group) by using a 408 nm semiconductor laser (DC-3000, Nidek). Both eyes were each irradiated at three positions with a spot size of 170 μm, an exposure time of 0.02 sec, and an output of 200 mW. The drug was orally administered once a day for three days beginning on the day of the laser coagulation. On the next day of the last administration, the mice were intravenously injected with 7 mg/kg of fluorescein. Five minutes after the injection, three fluorescent fundus images of each eye were taken (TRC-501X, Topcon) and stored in a CCD camera having 640×480 pixels as an image file. The total pixel brightness (0 to 1) in regions where fluorescein leakage was detected was used as an index (FA score) of choroidal neovascularization activity. The FA score was calculated by defining reference values such that the pixel brightness in a capillary region of a non-coagulated site is 0 and the pixel brightness on a main branch of the retinal blood vessel is 1.

Each structure is given as a SMILES string. Converted amounts (≈) assume the structure as drawn.

With `COCCOc1ccc(NC(=O)Nc2ccc(Oc3ccnc4[nH]ccc34)cc2)cc1C(F)(F)F` [Compound 1, 1-[4-(2-methoxyethoxy)-3-(trifluoromethyl)phenyl]-3-[4-(1H-pyrrolo[2,3-b]pyridin-4-yloxy)phenyl]urea], the IC50 in data set [1] amounted to 2100 nM; in [2] it was 3.7 nM; in data set [3], 2600 nM; in data set [5], 3.2 nM. Further, the inhibition at 0.0064 µM in [4] came out at 98%.

As for `COCCOc1ccc(NC(=O)Nc2ccc(Oc3ccnc4[nH]ncc34)cc2)cc1C(F)(F)F` [Compound 2, 1-[4-(2-Methoxyethoxy)-3-(trifluoromethyl)phenyl]-3-[4-(1H-pyrazolo[3,4-b]pyridin-4-yloxy)phenyl]urea], the inhibition at 0.0064 µM in data set [4] was found to be 82%.

In the case of `O=C(Nc1ccc(Oc2ccnc3[nH]ccc23)cc1)Nc1ccc(OC2CCOCC2)c(C(F)(F)F)c1` [Compound 7, 1-[4-(1H-Pyrrolo[2,3-b]pyridin-4-yloxy)phenyl]-3-[4-(tetrahydropyran-4-yloxy)-3-(trifluoromethyl)phenyl]urea], the IC50 was 3200 nM in data set [1], 3.9 nM in data set [2], 860 nM in data set [3] and 6.9 nM in [5]. Besides, the inhibition at 0.0064 µM in data set [4] was determined as 99%. Moreover, the “Tumor growth inhibition ratio (%)” value in data set [6] (200 mg/kg oral) was 97%. Further, in data set [6] (200 mg/kg oral), the “Decrease ratio in body weight (%)” value was 3.6%.

Take `O=C(Nc1ccc(Oc2ccnc3[nH]ccc23)cc1)Nc1ccc(CCCF)c(C(F)(F)F)c1` [Compound 11, 1-[4-(3-Fluoropropyl)-3-(trifluoromethyl)phenyl]-3-[4-(1H-pyrrolo[2,3-b]pyridin-4-yloxy)phenyl]urea]: the IC50 is 1600 nM in data set [1], 5.8 nM in data set [2], 650 nM in data set [3] and 9.7 nM in [5]. Besides, the inhibition at 0.0064 µM in data set [4] stood at 82%. Also, in [6] (100 mg/kg oral), the “Tumor growth inhibition ratio (%)” value is listed as 89%. In data set [6] (100 mg/kg oral), the “Decrease ratio in body weight (%)” value worked out at 7.8%. This compound also returned a solubility at 20 h in [7] of 14 µg/mL (≈ 29.6 µM).

Regarding `O=C(Nc1ccc(Oc2ccnc3[nH]ccc23)cc1)Nc1ccc(OCCF)c(C(F)(F)F)c1` [Compound 15, 1-[4-(2-Fluoroethoxy)-3-(trifluoromethyl)phenyl]-3-[4-(1H-pyrrolo[2,3-b]pyridin-4-yloxy)phenyl]urea], the IC50 stood at 2300 nM in data set [1], 4 nM in [2], 1200 nM in data set [3] and 11 nM in data set [5]. For the same compound, in [4], the inhibition at 0.0064 µM was determined as 100%.

As for `O=C(Nc1ccc(Oc2ccnc3[nH]ncc23)cc1)Nc1ccc(CCCF)c(C(F)(F)F)c1` [Compound 19, 1-[4-(3-Fluoro-propyl)-3-(trifluoromethyl)phenyl]-3-[4-(1H-pyrazolo[3,4-b]pyridin-4-yloxy)phenyl]urea], the IC50 is 2400 nM in data set [1], 1.8 nM in data set [2], 300 nM in data set [3] and 18 nM in data set [5]. Moreover, the inhibition at 0.0064 µM in [4] is 98%. Further, the “Tumor growth inhibition ratio (%)” value in [6] (100 mg/kg oral) worked out at 89%. In data set [6] (100 mg/kg oral), the “Decrease ratio in body weight (%)” value is reported as 4.9%. Also, in data set [7], the solubility at 20 h is 16 µg/mL (≈ 33.8 µM).

As to `O=C(Nc1ccc(Oc2ccnc3[nH]ccc23)cc1)Nc1ccc(CCF)c(C(F)(F)F)c1` [Compound 21, 1-[4-(2-Fluoroethyl)-3-(trifluoromethyl)phenyl]-3-[4-(1H-pyrrolo[2,3-b]pyridin-4-yloxy)phenyl]urea], the IC50 in data set [1] was 1300 nM; in data set [2] it was 4.4 nM; in data set [3] it was 860 nM. Moreover, the inhibition at 0.0064 µM in data set [4] came out at 100%.

Consider `O=C(Nc1ccc(Oc2ccnc3[nH]ccc23)cc1)Nc1cc(CCF)cc(C(F)(F)F)c1` [Compound 22, 1-[3-(2-Fluoroethyl)-5-(trifluoromethyl)phenyl]-3-[4-(1H-pyrrolo[2,3-b]pyridin-4-yloxy)phenyl]urea], for which the IC50 in data set [1] amounted to 1300 nM; in data set [2] it was 5.4 nM; in data set [3], 630 nM; at Raf-1 it was 23 nM; in [8], 3.6 nM; in data set [5], 14 nM. The inhibition at 0.0064 µM in data set [4] was determined as 96%. The same compound showed a solubility at 20 h in data set [7] of 16 µg/mL (≈ 34.9 µM).

`O=C(Nc1ccc(Oc2ccnc3[nH]ccc23)cc1)Nc1ccc(CF)c(C(F)(F)F)c1` [Compound 51, 1-(4-fluoromethyl-3-trifluoromethyl-phenyl)-3-[4-(1H-pyrrolo[2,3-b]pyridin-4-yloxy)phenyl]urea]: the IC50 in data set [1] came out at 1000 nM; in data set [2], 4 nM; in data set [3] it was 800 nM; against Raf-1, 35 nM; in data set [8], 0.35 nM; in data set [5], 16 nM. In addition, the solubility at 20 h in data set [7] is 15 µg/mL (≈ 33.8 µM).

For the compound `O=C(Nc1ccc(Oc2ccnc3[nH]ccc23)cc1)Nc1ccc(Oc2ccc(F)cc2)c(C(F)(F)F)c1` [Compound 58, 1-[4-(4-Fluorophenoxy)-3-(trifluoromethyl)phenyl]-3-[4-(1H-pyrrolo[2,3-b]pyridin-4-yloxy)phenyl]urea], the “inhibition of the angiogenesis (in words)” value in data set [9] (50 mg/kg) was “significantly inhibited”. Besides, the entries for the “Average FA score” value in data set [9] (50 mg/kg oral) and in data set [9] (100 mg/kg oral) were 7.127 and 6.664, respectively.

Source of the values: patent US8299252B2, “Pyrazolopyridine and pyrrolopyridine multikinase inhibitors” (Chugai Seiyaku Kabushiki Kaisha, priority 2005, dated 2012).
